Measurements from ChEMBL document CHEMBL4507284, “Data for DCP probe BI-1230” (2021).

Assays:
[1] = target: Serine/threonine-protein kinase Nek5 (Homo sapiens) (UniProt Q6P3R8); settings: Compound concentration 1000.0 nM
[2] = target: STE20-like serine/threonine-protein kinase (Homo sapiens) (UniProt Q9H2G2); settings: Compound concentration 1000.0 nM
[3] = target: Cyclin-dependent kinase 15 (Homo sapiens) (UniProt Q96Q40); settings: Compound concentration 1000.0 nM
[4] = target: Dual specificity mitogen-activated protein kinase kinase 2 (Homo sapiens) (UniProt P36507); settings: Compound concentration 1000.0 nM
[5] = target: Serine/threonine-protein kinase PLK2 (Homo sapiens) (UniProt Q9NYY3); settings: Compound concentration 1000.0 nM
Sequence of Serine/threonine-protein kinase PLK2 (Homo sapiens) (Q9NYY3 whole entry, looked up): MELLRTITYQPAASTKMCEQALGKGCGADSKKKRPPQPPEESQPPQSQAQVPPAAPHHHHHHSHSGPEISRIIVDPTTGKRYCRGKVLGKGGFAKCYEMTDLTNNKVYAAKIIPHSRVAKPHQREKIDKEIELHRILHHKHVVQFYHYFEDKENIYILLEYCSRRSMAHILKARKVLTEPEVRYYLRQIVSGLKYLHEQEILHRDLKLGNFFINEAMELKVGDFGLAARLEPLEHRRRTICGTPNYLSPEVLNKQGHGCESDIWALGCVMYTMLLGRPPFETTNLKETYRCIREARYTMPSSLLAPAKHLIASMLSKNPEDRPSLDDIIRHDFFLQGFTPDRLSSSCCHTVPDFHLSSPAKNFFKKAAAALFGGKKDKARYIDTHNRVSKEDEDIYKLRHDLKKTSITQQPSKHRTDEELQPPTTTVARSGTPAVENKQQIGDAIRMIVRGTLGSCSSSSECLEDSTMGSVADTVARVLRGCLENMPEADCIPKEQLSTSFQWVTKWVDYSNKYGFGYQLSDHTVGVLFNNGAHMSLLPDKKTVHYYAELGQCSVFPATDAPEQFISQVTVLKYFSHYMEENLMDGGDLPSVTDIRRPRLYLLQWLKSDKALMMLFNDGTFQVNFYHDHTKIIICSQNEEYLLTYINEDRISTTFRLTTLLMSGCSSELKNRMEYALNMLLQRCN

[6] = target: Serine/threonine-protein kinase Nek9 (Homo sapiens) (UniProt Q8TD19); settings: Compound concentration 1000.0 nM
[7] = target: MAP kinase-activated protein kinase 5 (Homo sapiens) (UniProt Q8IW41); settings: Compound concentration 1000.0 nM
[8] = target: Leukocyte tyrosine kinase receptor (Homo sapiens) (UniProt P29376); settings: Compound concentration 1000.0 nM
[9] = target: Histamine H2 receptor (Homo sapiens) (UniProt P25021); settings: Compound concentration 10.0 uM
[10] = target: Serine/threonine-protein kinase MRCK alpha (Homo sapiens) (UniProt Q5VT25); settings: Compound concentration 1000.0 nM
[11] = target: Tyrosine-protein kinase ABL1 (Homo sapiens) (UniProt P00519); settings: Compound concentration 1000.0 nM
[12] = target: Homeodomain-interacting protein kinase 1 (Homo sapiens) (UniProt Q86Z02); settings: Compound concentration 1000.0 nM
[13] = system: Epidermal growth factor receptor (Homo sapiens), P00533 [UNDEFINED MUTATION]; settings: Compound concentration 1000.0 nM
Sequence of Epidermal growth factor receptor (Homo sapiens), P00533 [UNDEFINED MUTATION] (P00533 whole entry, looked up, change not shown): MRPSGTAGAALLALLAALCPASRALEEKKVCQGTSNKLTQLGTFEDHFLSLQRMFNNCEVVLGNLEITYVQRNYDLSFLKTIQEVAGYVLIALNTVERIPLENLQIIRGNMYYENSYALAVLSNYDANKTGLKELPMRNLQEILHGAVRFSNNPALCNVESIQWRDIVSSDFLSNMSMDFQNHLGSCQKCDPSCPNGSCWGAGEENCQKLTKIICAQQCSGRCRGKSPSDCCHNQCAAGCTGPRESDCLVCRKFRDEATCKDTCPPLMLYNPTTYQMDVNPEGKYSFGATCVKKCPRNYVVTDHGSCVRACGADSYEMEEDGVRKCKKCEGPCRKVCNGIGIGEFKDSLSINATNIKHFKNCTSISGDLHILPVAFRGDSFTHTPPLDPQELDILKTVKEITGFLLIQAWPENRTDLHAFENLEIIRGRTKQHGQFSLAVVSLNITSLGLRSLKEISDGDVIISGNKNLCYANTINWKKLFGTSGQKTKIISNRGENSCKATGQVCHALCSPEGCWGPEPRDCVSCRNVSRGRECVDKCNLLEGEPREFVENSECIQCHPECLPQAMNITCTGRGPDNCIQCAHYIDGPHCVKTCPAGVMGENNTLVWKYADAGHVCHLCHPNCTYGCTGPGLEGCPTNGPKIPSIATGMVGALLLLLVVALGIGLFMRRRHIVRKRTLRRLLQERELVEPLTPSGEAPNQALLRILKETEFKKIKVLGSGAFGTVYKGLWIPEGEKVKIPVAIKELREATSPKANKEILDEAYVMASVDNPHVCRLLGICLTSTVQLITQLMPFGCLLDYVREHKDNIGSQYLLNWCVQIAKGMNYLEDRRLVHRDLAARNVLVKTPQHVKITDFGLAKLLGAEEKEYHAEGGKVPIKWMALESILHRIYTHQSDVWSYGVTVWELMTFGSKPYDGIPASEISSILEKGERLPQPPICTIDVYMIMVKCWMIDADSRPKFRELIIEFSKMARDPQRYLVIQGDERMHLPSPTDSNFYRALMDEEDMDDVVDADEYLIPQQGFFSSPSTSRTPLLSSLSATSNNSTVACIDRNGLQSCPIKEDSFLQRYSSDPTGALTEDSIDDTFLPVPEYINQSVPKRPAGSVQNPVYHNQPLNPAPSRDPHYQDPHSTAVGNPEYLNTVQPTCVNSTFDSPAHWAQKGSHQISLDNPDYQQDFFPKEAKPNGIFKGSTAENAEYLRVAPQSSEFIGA

[14] = target: Tyrosine-protein kinase ABL2 (Homo sapiens) (UniProt P42684); settings: Compound concentration 1000.0 nM
[15] = target: Non-receptor tyrosine-protein kinase TNK1 (Homo sapiens) (UniProt Q13470); settings: Compound concentration 1000.0 nM
Sequence of Non-receptor tyrosine-protein kinase TNK1 (Homo sapiens) (Q13470 whole entry): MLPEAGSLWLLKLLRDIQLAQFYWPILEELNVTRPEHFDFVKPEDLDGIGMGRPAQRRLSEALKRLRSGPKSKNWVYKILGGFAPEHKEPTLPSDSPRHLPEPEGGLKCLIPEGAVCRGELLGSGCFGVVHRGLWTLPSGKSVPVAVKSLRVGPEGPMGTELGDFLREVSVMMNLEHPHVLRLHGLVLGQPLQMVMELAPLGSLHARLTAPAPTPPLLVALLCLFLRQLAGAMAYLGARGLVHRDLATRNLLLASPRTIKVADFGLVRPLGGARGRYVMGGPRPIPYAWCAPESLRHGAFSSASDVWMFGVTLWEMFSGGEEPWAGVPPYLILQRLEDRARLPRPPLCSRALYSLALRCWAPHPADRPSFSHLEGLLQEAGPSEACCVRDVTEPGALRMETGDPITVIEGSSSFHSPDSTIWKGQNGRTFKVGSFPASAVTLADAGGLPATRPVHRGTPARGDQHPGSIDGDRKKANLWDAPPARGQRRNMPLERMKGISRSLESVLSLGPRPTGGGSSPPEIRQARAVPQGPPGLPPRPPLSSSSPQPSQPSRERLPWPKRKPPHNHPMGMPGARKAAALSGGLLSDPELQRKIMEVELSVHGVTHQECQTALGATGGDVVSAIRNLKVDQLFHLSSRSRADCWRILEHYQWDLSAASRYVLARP

[16] = target: Tyrosine-protein kinase Mer (Homo sapiens) (UniProt Q12866); settings: Compound concentration 1000.0 nM
[17] = target: Phosphatidylinositol 5-phosphate 4-kinase type-2 beta (Homo sapiens) (UniProt P78356); settings: Compound concentration 1000.0 nM
[18] = target: Sigma intracellular receptor 2 (Homo sapiens) (UniProt Q5BJF2); settings: Compound concentration 10.0 uM
[19] = system: Epidermal growth factor receptor (Homo sapiens), P00533 [UNDEFINED MUTATION]; settings: Compound concentration 1000.0 nM; remark: listed apart in the source
[20] = target: Atypical kinase COQ8B, mitochondrial (Homo sapiens) (UniProt Q96D53); settings: Compound concentration 1000.0 nM
Sequence of Atypical kinase COQ8B, mitochondrial (Homo sapiens) (Q96D53 whole entry): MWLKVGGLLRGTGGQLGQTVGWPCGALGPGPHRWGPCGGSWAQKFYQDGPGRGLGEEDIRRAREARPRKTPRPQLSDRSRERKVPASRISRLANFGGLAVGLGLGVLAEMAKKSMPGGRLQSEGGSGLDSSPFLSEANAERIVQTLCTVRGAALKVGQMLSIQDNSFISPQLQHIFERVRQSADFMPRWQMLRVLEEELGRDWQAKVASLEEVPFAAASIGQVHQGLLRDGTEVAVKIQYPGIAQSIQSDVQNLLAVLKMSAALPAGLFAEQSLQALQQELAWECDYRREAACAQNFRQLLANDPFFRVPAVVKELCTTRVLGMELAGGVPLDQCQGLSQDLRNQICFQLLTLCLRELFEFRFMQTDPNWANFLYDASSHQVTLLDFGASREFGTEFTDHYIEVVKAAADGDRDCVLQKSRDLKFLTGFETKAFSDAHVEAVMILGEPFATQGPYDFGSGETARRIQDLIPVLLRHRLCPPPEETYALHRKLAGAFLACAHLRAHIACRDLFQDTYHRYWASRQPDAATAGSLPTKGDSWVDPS

[21] = system: Proto-oncogene tyrosine-protein kinase receptor Ret (Homo sapiens), P07949 [M918T]; settings: Compound concentration 1000.0 nM
[22] = target: Serine/threonine-protein kinase BRSK1 (Homo sapiens) (UniProt Q8TDC3); settings: Compound concentration 1000.0 nM
[23] = system: Phosphatidylinositol 4,5-bisphosphate 3-kinase catalytic subunit alpha isoform (Homo sapiens), P42336 [E542K]; settings: Compound concentration 1000.0 nM
[24] = target: Serine/threonine-protein kinase D3 (Homo sapiens) (UniProt O94806); settings: Compound concentration 1000.0 nM
Sequence of Serine/threonine-protein kinase D3 (Homo sapiens) (O94806 whole entry): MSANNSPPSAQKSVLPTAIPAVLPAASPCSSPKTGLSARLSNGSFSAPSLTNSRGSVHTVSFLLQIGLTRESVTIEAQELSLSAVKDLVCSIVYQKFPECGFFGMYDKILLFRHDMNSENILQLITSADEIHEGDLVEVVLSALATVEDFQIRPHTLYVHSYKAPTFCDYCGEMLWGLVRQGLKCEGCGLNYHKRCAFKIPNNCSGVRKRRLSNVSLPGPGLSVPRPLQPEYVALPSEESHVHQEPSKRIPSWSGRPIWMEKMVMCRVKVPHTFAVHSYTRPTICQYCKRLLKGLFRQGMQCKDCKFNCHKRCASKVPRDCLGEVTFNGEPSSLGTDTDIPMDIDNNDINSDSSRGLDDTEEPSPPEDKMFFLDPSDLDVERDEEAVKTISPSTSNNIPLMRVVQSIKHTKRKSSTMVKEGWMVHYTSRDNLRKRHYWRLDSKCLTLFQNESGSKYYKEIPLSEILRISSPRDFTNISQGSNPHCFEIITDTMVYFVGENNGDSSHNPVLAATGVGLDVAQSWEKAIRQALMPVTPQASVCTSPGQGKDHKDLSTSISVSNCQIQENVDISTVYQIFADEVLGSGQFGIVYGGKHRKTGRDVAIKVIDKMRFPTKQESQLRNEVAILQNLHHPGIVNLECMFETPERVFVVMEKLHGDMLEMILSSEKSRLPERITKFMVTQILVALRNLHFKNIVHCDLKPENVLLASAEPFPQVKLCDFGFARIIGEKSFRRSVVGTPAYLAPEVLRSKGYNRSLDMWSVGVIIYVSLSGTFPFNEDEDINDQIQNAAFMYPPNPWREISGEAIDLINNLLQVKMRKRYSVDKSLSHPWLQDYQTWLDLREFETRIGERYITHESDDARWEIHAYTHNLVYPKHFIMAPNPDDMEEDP

[25] = target: Death-associated protein kinase 2 (Homo sapiens) (UniProt Q9UIK4); settings: Compound concentration 1000.0 nM
[26] = target: MAP/microtubule affinity-regulating kinase 4 (Homo sapiens) (UniProt Q96L34); settings: Compound concentration 1000.0 nM
[27] = target: Non-receptor tyrosine-protein kinase TYK2 (Homo sapiens) (UniProt P29597); settings: Compound concentration 1000.0 nM
[28] = target: Serine/threonine-protein kinase 32B (Homo sapiens) (UniProt Q9NY57); settings: Compound concentration 1000.0 nM
[29] = target: TGF-beta receptor type-1 (Homo sapiens) (UniProt P36897); settings: Compound concentration 1000.0 nM
Sequence of TGF-beta receptor type-1 (Homo sapiens) (P36897 whole entry): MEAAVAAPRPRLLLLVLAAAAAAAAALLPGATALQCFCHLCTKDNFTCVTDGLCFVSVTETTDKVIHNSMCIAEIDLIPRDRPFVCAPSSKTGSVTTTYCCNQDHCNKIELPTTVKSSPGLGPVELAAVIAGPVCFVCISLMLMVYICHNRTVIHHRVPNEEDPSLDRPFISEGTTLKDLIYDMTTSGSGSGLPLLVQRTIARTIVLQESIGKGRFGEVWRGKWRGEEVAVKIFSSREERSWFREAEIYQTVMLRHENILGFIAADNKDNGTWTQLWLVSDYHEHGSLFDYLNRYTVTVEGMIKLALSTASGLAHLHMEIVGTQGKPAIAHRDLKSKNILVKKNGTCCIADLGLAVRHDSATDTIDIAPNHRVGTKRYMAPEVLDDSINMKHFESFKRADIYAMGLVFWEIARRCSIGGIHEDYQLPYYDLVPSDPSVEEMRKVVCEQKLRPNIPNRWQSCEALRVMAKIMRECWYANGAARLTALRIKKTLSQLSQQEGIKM

[30] = target: Serine/threonine-protein kinase pim-3 (Homo sapiens) (UniProt Q86V86); settings: Compound concentration 1000.0 nM
[31] = target: Casein kinase I isoform delta (Homo sapiens) (UniProt P48730); settings: Compound concentration 1000.0 nM
Sequence of Casein kinase I isoform delta (Homo sapiens) (P48730 whole entry, looked up, canonical isoform): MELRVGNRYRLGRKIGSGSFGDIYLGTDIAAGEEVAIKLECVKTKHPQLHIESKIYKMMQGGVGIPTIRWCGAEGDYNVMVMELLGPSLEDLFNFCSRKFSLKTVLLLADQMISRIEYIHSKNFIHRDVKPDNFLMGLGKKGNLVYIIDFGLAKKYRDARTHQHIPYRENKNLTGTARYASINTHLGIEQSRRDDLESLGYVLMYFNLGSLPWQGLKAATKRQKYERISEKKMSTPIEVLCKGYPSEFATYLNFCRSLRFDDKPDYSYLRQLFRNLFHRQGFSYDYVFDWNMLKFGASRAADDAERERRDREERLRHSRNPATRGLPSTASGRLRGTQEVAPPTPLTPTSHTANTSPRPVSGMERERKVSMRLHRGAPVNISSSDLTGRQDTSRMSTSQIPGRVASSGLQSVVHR

[32] = target: Serine/threonine-protein kinase PLK4 (Homo sapiens) (UniProt O00444); settings: Compound concentration 1000.0 nM
[33] = system: Fibroblast growth factor receptor 3 (Homo sapiens), P22607 [G697C]; settings: Compound concentration 1000.0 nM
[34] = target: Receptor tyrosine-protein kinase erbB-3 (Homo sapiens) (UniProt P21860); settings: Compound concentration 1000.0 nM
[35] = system: Phosphatidylinositol 4,5-bisphosphate 3-kinase catalytic subunit alpha isoform (Homo sapiens), P42336 [E545A]; settings: Compound concentration 1000.0 nM
[36] = target: Serine/threonine-protein kinase Nek6 (Homo sapiens) (UniProt Q9HC98); settings: Compound concentration 1000.0 nM
[37] = target: Serine/threonine-protein kinase 26 (Homo sapiens) (UniProt Q9P289); settings: Compound concentration 1000.0 nM
[38] = target: Mitogen-activated protein kinase kinase kinase 19 (Homo sapiens) (UniProt Q56UN5); settings: Compound concentration 1000.0 nM
[39] = system: Epidermal growth factor receptor (Homo sapiens), P00533 [UNDEFINED MUTATION]; settings: Compound concentration 1000.0 nM; remark: listed apart in the source
[40] = target: Atypical kinase COQ8A, mitochondrial (Homo sapiens) (UniProt Q8NI60); settings: Compound concentration 1000.0 nM
[41] = target: Serine/threonine-protein kinase DCLK3 (Homo sapiens) (UniProt Q9C098); settings: Compound concentration 1000.0 nM
[42] = system: eIF-2-alpha kinase GCN2 (Homo sapiens), Q9P2K8 [S808G]; settings: Compound concentration 1000.0 nM
[43] = target: Dual specificity protein kinase CLK2 (Homo sapiens) (UniProt P49760); settings: Compound concentration 1000.0 nM
[44] = target: cGMP-dependent protein kinase 1 (Homo sapiens) (UniProt Q13976); settings: Compound concentration 1000.0 nM

COc1ccc2c(O[C@@H]3C[C@H]4C(=O)N[C@]5(C(=O)O)CC5/C=C\CCCCC[C@H](NC(=O)OC5CCCC5)C(=O)N4C3)cc(-c3csc(NC(=O)C(C)C)n3)nc2c1C (stereo partly drawn) [BI 1230]
residual activity [1]: 98%
residual activity [2]: 100%
residual activity [3]: 100%
residual activity [4]: 77%
residual activity [5]: 69%
residual activity [6]: 100%
residual activity [7]: 88%
residual activity [8]: 100%
inhibition [9]: 39.4%
residual activity [10]: 100%
residual activity [11]: 74%
residual activity [12]: 77%
residual activity [13]: 75%
residual activity [14]: 98%
residual activity [15]: 100%
residual activity [16]: 70%
residual activity [17]: 100%
inhibition [18]: 28%
residual activity [19]: 98%
residual activity [20]: 100%
residual activity [21]: 97%
residual activity [22]: 85%
residual activity [23]: 71%
residual activity [24]: 100%
residual activity [25]: 100%
residual activity [26]: 99%
residual activity [27]: 74%
residual activity [28]: 100%
residual activity [29]: 100%
residual activity [30]: 94%
residual activity [31]: 100%
residual activity [32]: 77%
residual activity [33]: 88%
residual activity [34]: 88%
residual activity [35]: 100%
residual activity [36]: 98%
residual activity [37]: 95%
residual activity [38]: 70%
residual activity [39]: 81%
residual activity [40]: 100%
residual activity [41]: 96%
residual activity [42]: 100%
residual activity [43]: 100%
residual activity [44]: 100%

O=C(N[C@H]1CCCCC/C=C\C2C[C@@]2(C(=O)O)NC(=O)[C@@H]2C[C@@H](Oc3ccncc3)CN2C1=O)OC1CCCC1 (stereo partly drawn) [BI 1675]
residual activity [1]: 91%
residual activity [2]: 100%
residual activity [3]: 100%
residual activity [4]: 87%
residual activity [5]: 93%
residual activity [6]: 100%
residual activity [7]: 96%
residual activity [8]: 99%
inhibition [9]: 15.6%
residual activity [10]: 87%
residual activity [11]: 85%
residual activity [12]: 86%
residual activity [13]: 49%
residual activity [14]: 100%
residual activity [15]: 100%
residual activity [16]: 64%
residual activity [17]: 100%
inhibition [18]: 18.5%
residual activity [19]: 78%
residual activity [20]: 100%
residual activity [21]: 96%
residual activity [22]: 80%
residual activity [23]: 96%
residual activity [24]: 82%
residual activity [25]: 100%
residual activity [26]: 100%
residual activity [27]: 99%
residual activity [28]: 99%
residual activity [29]: 100%
residual activity [30]: 100%
residual activity [31]: 81%
residual activity [32]: 88%
residual activity [33]: 100%
residual activity [34]: 84%
residual activity [35]: 100%
residual activity [36]: 87%
residual activity [37]: 97%
residual activity [38]: 93%
residual activity [39]: 85%
residual activity [40]: 90%
residual activity [41]: 100%
residual activity [42]: 100%
residual activity [43]: 100%
residual activity [44]: 100%
